Tests used:
Type in all cases: cell-based
[1] = test system: NHEJ repair activity in 293T cells; assay: NHEJ repair activity by CRISPR/Cas9-induced HPRT mutation with siRNA co-transfection, 6-TG selection and MTT cell viability; conditions: CRISPR/Cas9, 3 μg siRNA co-transfected, versus negative control siRNA
Protocol: The inhibiting effect of DNA-PKcs siRNA on NHEJ was determined by using a CRISPR/Cas9 technology, and the specific steps comprise:
(1) a Cas9/gRNA plasmid was constructed for HPRT gene, and the specific steps are as described in the embodiment 2.
(2) the Cas9/gRNA plasmid and DNA-PKcs siRNA were co-transfected into 293T cells. The specific steps comprise: 293T cells were inoculated into a culture dish of 6 cm, and 3 μg Cas9/gRNA plasmid and 3 μg DNA-PKcs siRNA were co-transfected into the 293T cells by using Lipofectamine 3000 when cell density reached 70%, and a negative control siRNA was transfected for the negative control group. The gene sequence of DNA-PKcs siRNA was […] (SEQ ID NO:5).
(3) the cells were treated with 6-TG. The specific steps comprise: the cells were inoculated into a 96-well plate after the transfection is performed for 24 h, then the culture medium was replaced with a DMEM culture medium containing 30 μmol/L 6-TG after cell attachment, and the cells were continually cultured for 72 h.
(§1) (4) cell viability was determined by a MTT method. The specific steps comprise: a MTT solution was added after the treatment was completed, 2 h later, the formed blue formazan particles were dissolved with DMSO, and then the light absorption value of each well was determined at OD570 nm via a microplate reader. […]

[2] = test system: NHEJ repair activity in 293T cells; assay: NHEJ repair activity by CRISPR/Cas9-induced HPRT mutation, 6-TG selection and MTT cell viability (NU7441 treatment time)
Protocol: The time dependence of the inhibiting effect of 2.0 μmol/L NU7441 on NHEJ was determined by using the CRISPR/Cas9 technology, specific steps were as follows:
(1) a Cas9/gRNA plasmid was constructed for HPRT gene. The specific steps comprise: a target site primer of HPRT was designed according to a gRNA design principle, wherein the forward primer is […] (SEQ ID NO:3), and the reverse primer is […] (SEQ ID NO:4). The primers were annealed to form a dimer, and the gRNA-sequence primer dimer was inserted into a Cas9/gRNA plasmid according to the method indicated on the CRISPR/Cas9 construction kit. Competent E. coli cells were transformed with the plasmid, spread on an ampicillin-resistant plate. 3-5 clones were selected and cultured in a shaker, plasmids were extracted and sequenced, and the obtained sequences were compared with the designed recognition sequences, ensuring the Cas9/gRNA plasmids with correct sequences were obtained.
(2) the Cas9/gRNA plasmids were transfected into 293T cells. […]
as §1, with “(5)” for “(4)”

[3] = test system: NHEJ repair activity in 293T cells; assay: NHEJ repair activity by TALEN-induced HPRT mutation, 6-TG selection and MTT cell viability; conditions: for inhibition rate of NHEJ repair activity: then 30 μmol/L 6-TG 72 h
Protocol: The inhibiting effects of different concentrations of NU7441 on NHEJ are determined by using the TALEN technology, and the specific steps are as follows:
(1) a TALEN plasmid for HPRT gene was constructed. The specific steps comprise: a left-arm recognition sequence ATGACCTTGATTTA (SEQ ID NO:1) and a right-arm recognition sequence CCAAATCCTCAGCA (SEQ ID NO:2) of the target HPRT gene were designed according to the TALEN design principle, and the two recognition sequences were inserted into a corresponding backbone carrier according to the method indicated on the TALEN construction kit. Competent E. coli cells were transformed with the carrier, uniformly spread on a kanamycin-resistant (20 μg/ml) plate and cultured in an incubator at 37° C. for 12-16 h, then 3-5 clones were selected and inoculated in 5 ml LB culture solution (containing 20 μg/ml kanamycin), and cultured in a shaker at 250 rpm under 37° C. for 16 h, plasmids were extracted and sequenced, and the obtained sequences were compared with the designed recognition sequences, ensuring the left-arm and right-arm TALEN plasmids with correct sequences were obtained.
(2) the left-arm and right-arm TALEN plasmids were transfected into 293T cells. The specific steps comprise: 293T cells were inoculated into a culture dish of 6 cm, and 4 μg left-arm plasmids and 4 μg right-arm plasmids were transfected into the 293T cells by using Lipofectamine 3000 when cell density reached 70%.
(3) the 293T cells were treated with different concentrations of the inhibitor NU7441. […]
as §1, with “(5)” for “(4)”

DNA-PKcs siRNA: siRNA of the NHEJ repair molecule DNA-PKcs, sequence UUCUCCGAACGUGUCACGUTT (SEQ ID NO:5), synthesized by GenePharma (chemistry not given here)
repair activity of NHEJ [1]: inhibited significantly

O=c1cc(N2CCOCC2)oc2c(-c3cccc4c3sc3ccccc34)cccc12 [NU7441]
inhibition rate of NHEJ repair activity ([2]; CRISPR/Cas9, 2.0 μmol/L for 1 h, then 30 μmol/L 6-TG 72 h): about 50% | inhibiting effect on NHEJ activity ([2]; CRISPR/Cas9, 2.0 μmol/L, treatment longer than 1 h (2 and 4 h)): reduced over time | inhibition rate of NHEJ repair activity ([3]; 0.5 μmol/L for 4 h): about 50% | inhibition rate of NHEJ repair activity ([3]; 1.0 μmol/L for 4 h): about 50% | inhibiting effect on NHEJ repair activity ([3]; concentration increased to 2.0 μmol/L, 4 h (compared with 0.5, 1.0 μmol/L)): the inhibiting effect was reduced

Reference: patent publication US9863933B2, “Method for determining the repair activity of non-homologous end joining” (Soochow University, priority 2015, dated 2018)
